Assay results as given in patent publication US7572826B2, “Thiophene-carboxamide derivatives and their use as inhibitors of the enzyme IKK-2” (AstraZeneca AB, priority 2003, dated 2009).

Legend:
[1] = system: human peripheral blood mononuclear cells (PBMCs); assay: Inhibition of LPS-induced TNFα production by PBMCs; assay type: cell-based; settings: PBMC, inhibition of LPS-stimulated TNFα production
Procedure: The effect of test compounds on nuclear factor kappa B (NFκB) activation in cells was assessed by measuring inhibition of tumour necrosis factor alpha (TNFα) production by human peripheral blood mononuclear cells (PBMCs) stimulated by bacterial lipopolysaccharide (LPS).
Human blood (250 ml), anticoagulated with heparin, was collected from healthy volunteers. Aliquots of blood (25 ml) were layered on 20 ml Lymphoprep (Nycomed) in 50 ml polypropylene centrifuge tubes. The tubes were centrifuged (Sorval RT600B) at 2,500 rpm for 30 minutes. The cloudy layer containing PBMCs was collected with a fine tipped Pasteur pipette, transferred into 8 clean polypropylene centrifuge tubes (approximately 10 ml per tube) and diluted to 50 ml with phosphate-buffered saline (PBS). These tubes were centrifuged at 2,000 rpm for 8 minutes. PBS (10 ml) was added to each cell pellet and the cells were gently re-suspended. The cells were pooled in 4 centrifuge tubes, PBS was added to each tube to make the volume up to 50 ml and the tubes were centrifuged at 1,400 rpm for 8 minutes. The cell pellets were again re-suspended in 10 ml PBS, pooled in 2 centrige tubes, the volume made up to 50 ml with PBS and the tubes centrifuged at 900 rpm for 10 minutes.
The final cell pellets were gently re-suspended in 10 ml tissue culture medium (RPMI containing 1% heat-inactivated human serum, L-glutamine and penicillin and streptomycin), combined into 1 tube and the volume made up to 30 ml with RPMI medium. The cells were counted and the cell suspension was diluted to 2.6×10^6 cells/ml.
Test compounds were dissolved in DMSO to 10 mM and diluted 1 in 250 (40 μM) with RPMI medium. The compounds were then serially diluted 1 in 3 with 0.4% DMSO in RPMI medium. Aliquots of test compound dilutions (50 μl) were transferred to the wells of a 96-well plate. Control wells contained 0.4% DMSO in RPMI instead of compound.
Aliquots of the cell suspension (100 μl) were added to each well and the plates incubated at 37° C. for 30 minutes. 50 μl of 40 μg/ml LPS (Sigma, LA130) was added to wells to stimulate TNFα production by the cells and the plates were incubated overnight at 37° C. RPMI medium (50 μl) was added to negative control wells instead of LPS. The final incubation volume was 200 μl.
Plates were centrifuged for 4 minutes at 1,200 rpm and supernatants were removed for measurement of TNFα concentration. Viability of the remaining cell pellet was measured using WST-1 reagent (Boehringer Mannheim, 1044807). […] The absorbance at 450 nm was then measured using a 96-well plate spectrophotometer.
TNFα in the supernatants (freshly harvested or stored frozen at −20° C.) were measured using an enzyme-linked immunosorbant assay (ELISA). […]

IKK-2 = biological target: T1, IKK-2 (Homo sapiens, UniProt O14920); assay: IKK-2 filter kinase assay; assay type: biochemical; settings: 1 μM ATP, 1-53 GST-IκB substrate, read-out: Inhibition of IKK-2 IC50
T1 sequence (O14920 1-756): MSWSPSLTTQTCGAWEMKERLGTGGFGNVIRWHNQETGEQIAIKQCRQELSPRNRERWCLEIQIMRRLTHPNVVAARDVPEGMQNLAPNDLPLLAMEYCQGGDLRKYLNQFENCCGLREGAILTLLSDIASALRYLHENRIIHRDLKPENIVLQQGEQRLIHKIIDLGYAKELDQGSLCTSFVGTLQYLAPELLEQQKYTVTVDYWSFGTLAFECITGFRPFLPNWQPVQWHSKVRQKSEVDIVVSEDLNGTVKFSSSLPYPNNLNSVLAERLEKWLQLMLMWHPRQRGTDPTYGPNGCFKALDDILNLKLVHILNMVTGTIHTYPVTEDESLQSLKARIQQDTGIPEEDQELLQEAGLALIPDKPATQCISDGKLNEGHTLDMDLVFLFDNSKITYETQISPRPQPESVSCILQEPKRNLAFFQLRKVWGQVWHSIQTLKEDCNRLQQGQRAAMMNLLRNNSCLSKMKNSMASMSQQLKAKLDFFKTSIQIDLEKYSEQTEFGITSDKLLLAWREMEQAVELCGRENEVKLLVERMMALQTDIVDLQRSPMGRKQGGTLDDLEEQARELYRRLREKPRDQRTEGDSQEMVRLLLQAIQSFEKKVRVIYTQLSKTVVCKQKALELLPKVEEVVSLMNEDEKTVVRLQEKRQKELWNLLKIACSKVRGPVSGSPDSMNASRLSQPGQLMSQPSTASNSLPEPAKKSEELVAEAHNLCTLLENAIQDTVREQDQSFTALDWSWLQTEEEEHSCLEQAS
Procedure: The test compounds were dissolved to 10 mM in dimethylsulphoxide (DMSO). The compounds were then diluted 1 in 40 in kinase buffer (50 mM Tris, pH 7.4 containing 0.1 mM EGTA, 0.1 mM sodium orthovanadate and 0.1% β-mercaptoethanol). 1 in 3 serial dilutions were made from this solution with 2.5% DMSO in kinase buffer. 20 μl of compound dilution was added to wells of a 96 well plate in duplicate.
10 μl of a mixture of magnesium acetate, unlabelled ATP, and ^33P-labelled ATP was added to each well made such that the final concentration was 10 mM magnesium acetate, 1 μM ATP and 0.1 μCi ^33P ATP. […] The final reaction volume was 50 μl.
The kinase reactions were incubated at 21° C. for 80 minutes and the reaction stopped by precipitating the protein by the addition of an equal volume (50 μl) of 20% trichloroacetic acid (TCA). The precipitate was allowed to form for 10 minutes and then filtered onto a GF/C unifilter 96 well plate. Each filter was washed twice with approximately 1 ml 2% TCA. The filter plate was dried at 30-40° C. for 60 minutes, 20 μl scintillant was added to each well and the plate sealed and radioactivity counted on a Packard Topcount microplate scintillation counter.

SMILES | IC50 [1] [nM] | IC50 (IKK-2) [nM]
NC(=O)Nc1sc(-c2ccc(CN(CCO)Cc3ccccc3)cc2)cc1C(N)=O [Example 61, 2-[(Aminocarbonyl)amino]-5-[4-{([N-benzyl-N-(2-hydroxyethyl)]amino)methyl}phenyl]thiophene-3-carboxamide] | 340 | 0.56
CN(C)Cc1ccc(-c2cc(C(N)=O)c(NC(N)=O)s2)cc1 [Example 5, 2-[(Aminocarbonyl)amino]-5-{4-[dimethylaminomethyl]phenyl}thiophene-3-carboxamide] | 120 | 13
NC(=O)Nc1sc(-c2ccc(CNCC(F)(F)F)cc2)cc1C(N)=O [Example 1] | 420 | 3.6
COCCN(C)Cc1ccc(-c2cc(C(N)=O)c(NC(N)=O)s2)cc1 [Example 56] | 450 | 66
